Our source for the IC50 and Ki values is patent US20060093617A1, “Peptides for inducing a CTL and/or HTL response to hepatitis C virus” (Innogenetics, N.V., priority 2004, published 2006).

Structures are written as SMILES. Where a SMILES comes first, the peptide text is derived from it.

The target in one assay is T1, DRB1*0101 (Homo sapiens, UniProt P01903+P01911, A100R/D57E/F55L/F60I/F76Y/I96L/L162R/M171V/P40L/Q125E/R42F/V115G/Y59C).
T1 construct: endogenous in cells; host or cells: cell lysate
The assay can be described thus: Competition binding assay using soluble HLA class II.

Another assay concerns the target T2, B*0702 (Homo sapiens, UniProt P01889).
T2 construct: endogenous in cells
The assay can be described thus: Competition binding assay using soluble HLA class I. The conditions noted are these: for Ki: Ki (nM), HLA-B0702 section.

The target in the next assay is T3, HLA-Cw06 (Homo sapiens, UniProt P10321, A176E/A330V/C350S/L171W/L180W/L218V/M285V/M309V/M331V/N104K/P208H/Q277E/Q291P/R121W/R243W/S101N/S123Y/S297R/T329A/T363A/V319A/V328M).
T3 construct: endogenous in cells
The assay can be described thus: HLA class I competition cell-based binding assay.

Another assay addresses HLA-A02 (Homo sapiens, UniProt P04439, D140Y/D185E/D98H/E176V/E277Q/G131W/G231S/I119V/I121R/I166T/I218V/L300P/L318F/N151K/N90K/P208A/P217A/Q86G/Q94H/R138H/R169H/T345S). Nature of the assay: Competition binding assay using soluble HLA class I.
For a further assay, the target named is T4, HLA-Cw07 (Homo sapiens, UniProt P10321).
T4 construct: endogenous in cells
The assay can be described thus: HLA class I competition cell-based binding assay.

On DRB1*0101, `CC[C@H](C)[C@H](NC(=O)[C@H](Cc1ccc(O)cc1)NC(=O)CNC(=O)[C@H](CCSC)NC(=O)[C@H](CC(C)C)NC(=O)[C@H](CC(=O)O)NC(=O)[C@H](C)N)C(=O)N1CCC[C@H]1C(=O)N[C@@H](CC(C)C)C(=O)N[C@H](C(=O)NCC(=O)N[C@@H](C)C(=O)N1CCC[C@H]1C(=O)N[C@@H](CC(C)C)C(=O)NCC(=O)O)C(C)C` displayed an IC50 of 8330 nM.

In the case of `CC(C)C[C@H](NC(=O)[C@@H](NC(=O)[C@H](CCCNC(=N)N)NC(=O)[C@@H](NC(=O)CNC(=O)[C@H](Cc1c[nH]cn1)NC(=O)[C@H](C)NC(=O)[C@H](CC(C)C)NC(=O)[C@H](C)N)C(C)C)C(C)C)C(=O)O`, the figures for the Ki on B*0702, on HLA-Cw06 and on HLA-A02 were 7950 nM, 3310 nM and 627 nM, respectively.

Consider `CC(C)C[C@H](NC(=O)[C@@H]1CCCN1C(=O)[C@H](C)N)C(=O)NCC(=O)NCC(=O)N[C@@H](C)C(=O)N[C@@H](C)C(=O)N[C@@H](CCCNC(=N)N)C(=O)N[C@@H](C)C(=O)O`, for which, at B*0702, the IC50 amounted to 115 nM and the affinity corresponds to a Ki of 115 nM.

At DRB1*0101, `CC(C)C[C@H](NC(=O)[C@H](CCCCN)NC(=O)[C@H](CCCNC(=N)N)NC(=O)[C@H](CC(C)C)NC(=O)[C@H](CS)NC(=O)[C@H](CO)NC(=O)[C@H](C)N)C(=O)NCC(=O)N[C@H](C(=O)N1CCC[C@H]1C(=O)N1CCC[C@H]1C(=O)N[C@@H](CC(C)C)C(=O)N[C@@H](CCCNC(=N)N)C(=O)N[C@H](C(=O)N[C@@H](Cc1c[nH]c2ccccc12)C(=O)O)C(C)C)C(C)C` registered an IC50 of 4.9 nM. That is a single-digit nanomolar value.

Regarding `CC(C)C[C@H](NC(=O)[C@H](CCC(N)=O)NC(=O)[C@H](CO)NC(=O)[C@H](C)N)C(=O)N[C@@H](CO)C(=O)N[C@@H](C)C(=O)N1CCC[C@H]1C(=O)N[C@@H](CO)C(=O)N[C@@H](CC(C)C)C(=O)N[C@@H](CCCCN)C(=O)N[C@@H](C)C(=O)N[C@H](C(=O)N[C@@H](CS)C(=O)N[C@H](C(=O)N[C@H](C(=O)O)[C@@H](C)O)[C@@H](C)O)[C@@H](C)O`, at DRB1*0101, the IC50 came to 329 nM.

With `CC(C)C[C@H](NC(=O)[C@@H](NC(=O)[C@H](C)NC(=O)[C@H](C)NC(=O)[C@@H](NC(=O)[C@H](CO)NC(=O)[C@@H]1CCCN1C(=O)[C@H](CC(N)=O)NC(=O)[C@H](CC(C)C)NC(=O)[C@@H](NC(=O)[C@H](CC(C)C)NC(=O)[C@@H](NC(=O)[C@H](CCCCN)NC(=O)[C@H](Cc1ccc(O)cc1)NC(=O)CN)C(C)C)C(C)C)C(C)C)[C@@H](C)O)C(=O)O`, the IC50 at DRB1*0101 worked out at 8.4 nM.

At HLA-Cw07, `CC[C@H](C)[C@H](NC(=O)[C@H](CC(N)=O)NC(=O)[C@H](CCC(N)=O)NC(=O)[C@@H](N)Cc1c[nH]cn1)C(=O)N[C@H](C(=O)N[C@@H](CC(=O)O)C(=O)N[C@H](C(=O)N[C@@H](CCC(N)=O)C(=O)N[C@@H](Cc1ccc(O)cc1)C(=O)O)C(C)C)C(C)C` came in with a Ki of 14200 nM.

`CC[C@H](C)[C@H](NC(=O)[C@H](Cc1ccc(O)cc1)NC(=O)[C@@H](N)CCCCN)C(=O)N[C@@H](CCSC)C(=O)N[C@@H](C)C(=O)N[C@@H](CS)C(=O)N[C@@H](CCSC)C(=O)N[C@@H](CO)C(=O)N[C@@H](C)C(=O)O` returned an inhibition constant Ki at HLA-Cw07 of 7210 nM.

Molecule `CC(C)C[C@H](NC(=O)[C@H](CCCNC(=N)N)NC(=O)[C@@H]1CCCN1C(=O)CNC(=O)[C@H](CCCNC(=N)N)NC(=O)[C@H](CCCNC(=N)N)NC(=O)[C@@H]1CCCN1C(=O)[C@@H](N)CC(C)C)C(=O)O` yielded a Ki on B*0702 of 1 nM.

In the case of `CC(C)C[C@H](NC(=O)[C@H](CCCNC(=N)N)NC(=O)[C@@H]1CCCN1C(=O)CNC(=O)[C@H](CCCNC(=N)N)NC(=O)[C@H](CCCNC(=N)N)NC(=O)[C@@H]1CCCN1C(=O)[C@@H](N)CC(C)C)C(=O)NCC(=O)O`, at B*0702, the concentration for half-maximal inhibition (IC50) stood at 124 nM and the Ki amounted to 124 nM.

Regarding `CC[C@H](C)[C@H](NC(=O)[C@H](CC(N)=O)NC(=O)CNC(=O)[C@H](CC(C)C)NC(=O)[C@H](Cc1c[nH]c2ccccc12)NC(=O)[C@H](CO)NC(=O)[C@@H](N)CC(N)=O)C(=O)N[C@H](C(=O)N[C@@H](CCSC)C(=O)N[C@@H](Cc1ccc(O)cc1)C(=O)N[C@@H](C)C(=O)N1CCC[C@H]1C(=O)N[C@H](C(=O)N[C@@H](CC(C)C)C(=O)N[C@@H](Cc1c[nH]c2ccccc12)C(=O)O)[C@@H](C)O)[C@@H](C)CC`, the concentration for half-maximal inhibition (IC50) on DRB1*0101 turned out to be 1.2 nM.

With `CC(C)[C@H](NC(=O)CNC(=O)[C@H](CCCNC(=N)N)NC(=O)[C@@H](NC(=O)[C@H](CS)NC(=O)[C@@H](NC(=O)[C@H](C)NC(=O)[C@H](C)NC(=O)[C@@H](N)CCCNC(=N)N)C(C)C)[C@@H](C)O)C(=O)N[C@@H](C)C(=O)N[C@@H](CCCCN)C(=O)N[C@@H](C)C(=O)N[C@H](C(=O)N[C@@H](CC(=O)O)C(=O)N[C@@H](Cc1ccccc1)C(=O)O)C(C)C`, on DRB1*0101, the IC50 stood at 619 nM.

For `CC[C@H](C)[C@H](NC(=O)[C@H](CC(C)C)NC(=O)[C@H](C)NC(=O)CNC(=O)[C@@H](NC(=O)[C@H](Cc1c[nH]c2ccccc12)NC(=O)[C@@H](NC(=O)[C@H](Cc1ccc(O)cc1)NC(=O)[C@@H](N)CO)[C@@H](C)O)[C@@H](C)O)C(=O)N[C@H](C(=O)N1CCC[C@H]1C(=O)N[C@@H](CS)C(=O)N[C@@H](C)C(=O)N[C@@H](C)C(=O)N[C@@H](CCC(=O)O)C(=O)O)[C@@H](C)O`, the IC50 at DRB1*0101 came out at 5.63 nM.

For `CC(C)C[C@H](NC(=O)CNC(=O)[C@H](CCCNC(=N)N)NC(=O)[C@H](Cc1ccc(O)cc1)NC(=O)[C@H](Cc1ccc(O)cc1)NC(=O)[C@H](C)NC(=O)[C@@H](N)C(C)C)C(=O)N[C@@H](CC(=O)O)C(=O)N[C@H](C(=O)O)C(C)C`, the Ki on B*0702 was found to be 1420 nM; at HLA-Cw06, 231 nM.

`CC[C@H](C)[C@H](NC(=O)[C@H](CC(N)=O)NC(=O)CNC(=O)[C@H](CC(C)C)NC(=O)[C@H](Cc1c[nH]c2ccccc12)NC(=O)[C@H](CO)NC(=O)[C@H](CC(N)=O)NC(=O)[C@@H](N)C(C)C)C(=O)N[C@H](C(=O)N[C@@H](CCSC)C(=O)N[C@@H](Cc1ccc(O)cc1)C(=O)N[C@@H](C)C(=O)N1CCC[C@H]1C(=O)N[C@H](C(=O)N[C@@H](CC(C)C)C(=O)O)[C@@H](C)O)[C@@H](C)CC` registered an IC50 on DRB1*0101 of 1.42 nM.

With `CC[C@H](C)[C@H](NC(=O)[C@H](Cc1c[nH]cn1)NC(=O)[C@@H](NC(=O)[C@H](CC(C)C)NC(=O)CNC(=O)[C@@H](NC(=O)[C@H](Cc1ccccc1)NC(=O)[C@@H](NC(=O)[C@H](CO)NC(=O)[C@H](CCC(=O)O)NC(=O)[C@@H](N)Cc1c[nH]c2ccccc12)C(C)C)[C@@H](C)O)[C@@H](C)O)C(=O)N[C@@H](CC(=O)O)C(=O)N[C@@H](C)C(=O)N[C@@H](Cc1c[nH]cn1)C(=O)N[C@@H](Cc1ccccc1)C(=O)O`, on DRB1*0101, the IC50 came to 122 nM. This IC50 is about 86-fold higher than that of the molecule before.

Consider `CC(C)C[C@H](NC(=O)CNC(=O)[C@H](CC(C)C)NC(=O)[C@H](C)NC(=O)[C@H](CO)NC(=O)[C@H](CC(C)C)NC(=O)[C@H](CCCCN)NC(=O)[C@H](C)NC(=O)[C@H](C)N)C(=O)O` (H-AAKLSALGL-OH; N-terminus and C-terminus assumed), for which, on B*0702, the IC50 is 277 nM and the inhibition constant (Ki) came to 277 nM.

In turn, `CC(C)C[C@H](NC(=O)[C@H](C)NC(=O)[C@H](CCCNC(=N)N)NC(=O)[C@H](C)NC(=O)[C@H](C)N)C(=O)N[C@@H](C)C(=O)N[C@@H](Cc1c[nH]cn1)C(=O)NCC(=O)N[C@H](C(=O)O)C(C)C` (H-AARALAHGV-OH; N-terminus and C-terminus assumed) gave a Ki at B*0702 of 209 nM.

On B*0702, `C[C@H](N)C(=O)N1CCC[C@H]1C(=O)N[C@H](C(=O)NCC(=O)N[C@@H](CO)C(=O)NCC(=O)N[C@@H](CCCCN)C(=O)N[C@@H](CO)C(=O)N[C@H](C(=O)O)[C@@H](C)O)[C@@H](C)O` (H-APTGSGKST-OH; N-terminus and C-terminus assumed) came in with an IC50 of 370 nM and a Ki of 370 nM.

On to `CSCC[C@H](NC(=O)[C@H](Cc1ccc(O)cc1)NC(=O)[C@H](C)NC(=O)CNC(=O)[C@H](Cc1ccccc1)NC(=O)CNC(=O)[C@H](CC(C)C)NC(=O)[C@@H](NC(=O)[C@H](C)N)[C@@H](C)O)C(=O)O` (H-ATLGFGAYM-OH), for which the Ki at B*0702 came out at 13000 nM.

On DRB1*0101, `CC(C)C[C@H](NC(=O)[C@H](CCCNC(=N)N)NC(=O)[C@H](C)NC(=O)CN)C(=O)N[C@H](C(=O)N[C@H](C(=O)N[C@@H](CC(C)C)C(=O)N[C@@H](C)C(=O)N[C@H](C(=O)N[C@@H](C)C(=O)N[C@H](C(=O)N1CCC[C@H]1C(=O)N1CCC[C@H]1C(=O)NCC(=O)N[C@@H](CO)C(=O)O)[C@@H](C)O)[C@@H](C)O)C(C)C)C(C)C` (H-GARLVVLATATPPGS-OH; N-terminus and C-terminus assumed) gave an IC50 of 173 nM. This lies in the sub-micromolar range.

On to `CSCC[C@H](NC(=O)CNC(=O)[C@H](CO)NC(=O)[C@@H]1CCCN1C(=O)[C@H](CCCNC(=N)N)NC(=O)[C@H](CCC(=O)O)NC(=O)CNC(=O)[C@@H]1CCCN1C(=O)[C@@H](N)[C@@H](C)O)C(=O)O` (H-TPGERPSGM-OH), for which, on B*0702, the IC50 was 199 nM and the Ki stood at 199 nM.

For the molecule `CC[C@H](C)[C@H](NC(=O)[C@@H](NC(=O)[C@@H](N)[C@@H](C)O)[C@@H](C)O)C(=O)N[C@@H](CCSC)C(=O)N[C@@H](C)C(=O)N[C@@H](CCCCN)C(=O)N[C@@H](CC(N)=O)C(=O)N[C@@H](CCC(=O)O)C(=O)N[C@H](C(=O)N[C@@H](Cc1ccccc1)C(=O)N[C@@H](CS)C(=O)N[C@H](C(=O)N[C@@H](CCC(N)=O)C(=O)N1CCC[C@H]1C(=O)N[C@@H](CCC(=O)O)C(=O)O)C(C)C)C(C)C` (H-TTIMAKNEVFCVQPE-OH; N-terminus and C-terminus assumed), the IC50 on DRB1*0101 was determined as 3730 nM. This lies in the single-digit micromolar range.
